This assay has as its target Metabotropic glutamate receptor 8 (Rattus norvegicus) (UniProt P70579). In words: mGlu8 positive allosteric modulator potency, confirmation, cell-based, rat receptor, GIRK thallium flux (AID 743462).

The structures appear in SMILES notation.

Sequence of Metabotropic glutamate receptor 8 (Rattus norvegicus) (P70579 whole entry, looked up): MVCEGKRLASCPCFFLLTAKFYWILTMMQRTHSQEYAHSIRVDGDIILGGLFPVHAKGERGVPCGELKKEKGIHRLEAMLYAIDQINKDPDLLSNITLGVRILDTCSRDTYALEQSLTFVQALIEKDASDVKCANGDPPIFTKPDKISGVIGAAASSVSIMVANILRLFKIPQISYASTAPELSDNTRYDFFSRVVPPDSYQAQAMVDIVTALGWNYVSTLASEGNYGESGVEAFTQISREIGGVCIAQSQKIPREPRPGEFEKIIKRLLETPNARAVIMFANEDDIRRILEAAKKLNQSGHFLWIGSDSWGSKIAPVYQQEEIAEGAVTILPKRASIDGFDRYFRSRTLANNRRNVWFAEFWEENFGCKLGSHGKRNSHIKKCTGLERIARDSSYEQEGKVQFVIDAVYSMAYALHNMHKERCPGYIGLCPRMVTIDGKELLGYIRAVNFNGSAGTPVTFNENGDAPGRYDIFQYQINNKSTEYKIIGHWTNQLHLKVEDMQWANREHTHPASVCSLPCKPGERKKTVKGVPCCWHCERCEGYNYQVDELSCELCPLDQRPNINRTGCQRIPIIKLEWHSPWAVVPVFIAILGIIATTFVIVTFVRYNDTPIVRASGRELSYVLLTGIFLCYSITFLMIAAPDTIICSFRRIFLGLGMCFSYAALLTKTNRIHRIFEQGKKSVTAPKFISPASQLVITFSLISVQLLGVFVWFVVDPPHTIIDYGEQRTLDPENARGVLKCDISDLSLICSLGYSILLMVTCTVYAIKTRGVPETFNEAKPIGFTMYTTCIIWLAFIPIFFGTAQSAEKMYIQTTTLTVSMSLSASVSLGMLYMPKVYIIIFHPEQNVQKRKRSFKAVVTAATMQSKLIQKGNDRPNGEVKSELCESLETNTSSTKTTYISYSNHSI

`COC(=O)c1ccc(-n2c(C)cc(C(=O)CSc3ccc(NC(C)=O)cc3)c2C)cc1`: the concentration giving a half-maximal response (EC50) is 1800 nM.

In general, EC50 refers to the concentration that produces a half-maximal response.

The values are drawn from PubChem BioAssay AID743462 (Vanderbilt Specialized Chemistry Center, 2014).
